The test system of this data set is CCRIS mutagenicity, Ames/micronucleus/aberration tests. The data set can be described thus: CCRIS mutagenicity studies.
[1] abbreviates: Test System: AMES SALMONELLA TYPHIMURIUM, Strain/Indicator: TA98, Metabolic Activation: NONE, Method: PREINCUBATION
Setting [2] is: Test System: AMES SALMONELLA TYPHIMURIUM, Strain/Indicator: TA100, Metabolic Activation: NONE, Method: PREINCUBATION

The source made the active and inactive calls. The rule behind the calls is not given here.

Regarding `O=C1C(Cl)=C(Cl)C(=O)C(Cl)=C1Cl`, the mutagenic call (End Point: In vitro chromosomal aberrations, Test System: Chinese hamster lung (CHL/IU) cells, Metabolic Activation: Rat, Liver, S9, Phenobarbital and 5,6-benzoflavone) was “active; positive (structural changes and ploidy)”; the mutagenic call under setting [1] is “inactive; negative”; the mutagenic call under setting [2] is “inactive; negative”; the mutagenic call (Test System: AMES SALMONELLA TYPHIMURIUM, Strain/Indicator: TA100, Metabolic Activation: RAT, LIVER, S-9, PHENOBARBITAL AND 5,6-BENZOFLAVONE, Method: PREINCUBATION) was “active; positive”; the mutagenic call (Test System: AMES SALMONELLA TYPHIMURIUM, Strain/Indicator: TA102, Metabolic Activation: NONE, Method: PREINCUBATION) is “inactive; negative”; the mutagenic call (Test System: AMES SALMONELLA TYPHIMURIUM, Strain/Indicator: TA102, Metabolic Activation: RAT, LIVER, S-9, PHENOBARBITAL AND 5,6-BENZOFLAVONE, Method: PREINCUBATION) is “inactive; negative”. The mutagenic call by setting is: (Test System: AMES SALMONELLA TYPHIMURIUM, Strain/Indicator: TA2637, Metabolic Activation: NONE, Method: PREINCUBATION) “inactive; negative”; (Test System: AMES SALMONELLA TYPHIMURIUM, Strain/Indicator: TA2637, Metabolic Activation: RAT, LIVER, S-9, PHENOBARBITAL AND 5,6-BENZOFLAVONE, Method: PREINCUBATION) “inactive; negative”; (Test System: Ames Salmonella typhimurium, Strain/Indicator: TA98, Metabolic Activation: None, Method: Preincubation) “inactive; negative”; (Test System: Ames Salmonella typhimurium, Strain/Indicator: TA98, Metabolic Activation: Rat, Liver, S9, Sodium phenobarbital and 5,6-benzoflavone (10%), Method: Preincubation) “inactive; negative”; (Test System: Ames Salmonella typhimurium, Strain/Indicator: TA100, Metabolic Activation: None, Method: Preincubation) “inactive; negative”; (Test System: Ames Salmonella typhimurium, Strain/Indicator: TA100, Metabolic Activation: Rat, Liver, S9, Sodium phenobarbital and 5,6-benzoflavone (10%), Method: Preincubation) “active; positive”. Also, the mutagenic call runs as follows: (Test System: Ames Salmonella typhimurium, Strain/Indicator: TA1535, Metabolic Activation: None, Method: Preincubation) “inactive; negative”; (Test System: Ames Salmonella typhimurium, Strain/Indicator: TA1535, Metabolic Activation: Rat, Liver, S9, Sodium phenobarbital and 5,6-benzoflavone (10%), Method: Preincubation) “inactive; negative”; (Test System: Ames Salmonella typhimurium, Strain/Indicator: TA1537, Metabolic Activation: None, Method: Preincubation) “inactive; negative”; (Test System: Ames Salmonella typhimurium, Strain/Indicator: TA1537, Metabolic Activation: Rat, Liver, S9, Sodium phenobarbital and 5,6-benzoflavone (10%), Method: Preincubation) “inactive; negative”; (Test System: E. coli, Strain/Indicator: WP2uvrA/pKM101, Metabolic Activation: None, Method: Preincubation) “inactive; negative”; (Test System: E. coli, Strain/Indicator: WP2uvrA/pKM101, Metabolic Activation: Rat, Liver, S9, Sodium Phenobarbital and 5,6-benzoflavone, Method: Preincubation) “inactive; negative”.
For the compound `Nc1c(Cl)cc([N+](=O)[O-])cc1[N+](=O)[O-]`, the mutagenic call reads like this: (End Point: IN VITRO CHROMOSOMAL ABERRATIONS, Test System: CHL CELLS, Metabolic Activation: RAT, LIVER, S-9, SODIUM PHENOBARBITAL AND 5,6-BENZOFLAVONE) “active; positive (structural changes); authors report equivocal results for ploidy chang”; under setting [1], “active; positive”; (Test System: AMES SALMONELLA TYPHIMURIUM, Strain/Indicator: TA98, Metabolic Activation: RAT, LIVER, S-9, KANECHLOR 500, Method: PREINCUBATION) “active; positive”; (Test System: AMES SALMONELLA TYPHIMURIUM, Strain/Indicator: TA98, Metabolic Activation: RAT, LIVER, S-9, PHENOBARBITAL AND BETA-NAPHTHOFLAVONE, Method: PREINCUBATION) “active; positive”; under setting [2], “active; positive”; (Test System: AMES SALMONELLA TYPHIMURIUM, Strain/Indicator: TA100, Metabolic Activation: RAT, LIVER, S-9, KANECHLOR 500, Method: PREINCUBATION) “active; positive”. In addition, under “Test System: AMES SALMONELLA TYPHIMURIUM, Strain/Indicator: TA100, Metabolic Activation: RAT, LIVER, S-9, PHENOBARBITAL AND BETA-NAPHTHOFLAVONE, Method: PREINCUBATION”, the mutagenic call is “active; positive”.
Take `Nc1ncnc2nc(-c3ccc([N+](=O)[O-])cc3)[nH]c12`: the mutagenic call is, setting by setting: (Test System: AMES SALMONELLA TYPHIMURIUM, Strain/Indicator: TA98(1,8-DNP), Metabolic Activation: NONE, Method: PREINCUBATION) “active; positive”; (Test System: AMES SALMONELLA TYPHIMURIUM, Strain/Indicator: TA98(1,8-DNP), Metabolic Activation: RAT, LIVER, S-9, PCB, Method: PREINCUBATION) “active; positive”; (Test System: AMES SALMONELLA TYPHIMURIUM, Strain/Indicator: TA98(NR), Metabolic Activation: NONE, Method: PREINCUBATION) “active; positive”; (Test System: AMES SALMONELLA TYPHIMURIUM, Strain/Indicator: TA98(NR), Metabolic Activation: RAT, LIVER, S-9, PCB, Method: PREINCUBATION) “active; positive”; under setting [1], “active; positive”; (Test System: AMES SALMONELLA TYPHIMURIUM, Strain/Indicator: TA98, Metabolic Activation: RAT, LIVER, S-9, PCB, Method: PREINCUBATION) “active; positive”. For the same compound, the mutagenic call by setting is: (Test System: AMES SALMONELLA TYPHIMURIUM, Strain/Indicator: TA100(1,8-DNP), Metabolic Activation: RAT, LIVER, S-9, PCB, Method: PREINCUBATION) “inactive; negative”; (Test System: AMES SALMONELLA TYPHIMURIUM, Strain/Indicator: TA100(NR), Metabolic Activation: NONE, Method: PREINCUBATION) “inactive; negative”; (Test System: AMES SALMONELLA TYPHIMURIUM, Strain/Indicator: TA100(NR), Metabolic Activation: RAT, LIVER, S-9, PCB, Method: PREINCUBATION) “inactive; negative”; under setting [2], “active; positive”; (Test System: AMES SALMONELLA TYPHIMURIUM, Strain/Indicator: TA100, Metabolic Activation: RAT, LIVER, S-9, PCB, Method: PREINCUBATION) “active; positive”; (Test System: AMES SALMONELLA TYPHIMURIUM, Strain/Indicator: YG1020, Metabolic Activation: NONE, Method: PREINCUBATION) “active; positive”. In addition, the mutagenic call was “active; positive” (Test System: AMES SALMONELLA TYPHIMURIUM, Strain/Indicator: YG1020, Metabolic Activation: RAT, LIVER, S-9, PCB, Method: PREINCUBATION); “active; positive” (Test System: AMES SALMONELLA TYPHIMURIUM, Strain/Indicator: YG1021, Metabolic Activation: NONE, Method: PREINCUBATION); “active; positive” (Test System: AMES SALMONELLA TYPHIMURIUM, Strain/Indicator: YG1021, Metabolic Activation: RAT, LIVER, S-9, PCB, Method: PREINCUBATION); “active; positive” (Test System: AMES SALMONELLA TYPHIMURIUM, Strain/Indicator: YG1024, Metabolic Activation: NONE, Method: PREINCUBATION); “active; positive” (Test System: AMES SALMONELLA TYPHIMURIUM, Strain/Indicator: YG1024, Metabolic Activation: RAT, LIVER, S-9, PCB, Method: PREINCUBATION); “active; positive” (Test System: AMES SALMONELLA TYPHIMURIUM, Strain/Indicator: YG1025, Metabolic Activation: NONE, Method: PREINCUBATION). The mutagenic call reads like this: (Test System: AMES SALMONELLA TYPHIMURIUM, Strain/Indicator: YG1025, Metabolic Activation: RAT, LIVER, S-9, PCB, Method: PREINCUBATION) “active; positive”; (Test System: AMES SALMONELLA TYPHIMURIUM, Strain/Indicator: YG1026, Metabolic Activation: NONE, Method: PREINCUBATION) “active; positive”; (Test System: AMES SALMONELLA TYPHIMURIUM, Strain/Indicator: YG1026, Metabolic Activation: RAT, LIVER, S-9, PCB, Method: PREINCUBATION) “active; positive”; (Test System: AMES SALMONELLA TYPHIMURIUM, Strain/Indicator: YG1029, Metabolic Activation: NONE, Method: PREINCUBATION) “active; positive”; (Test System: AMES SALMONELLA TYPHIMURIUM, Strain/Indicator: YG1029, Metabolic Activation: RAT, LIVER, S-9, PCB, Method: PREINCUBATION) “active; positive”.

Source of the values: PubChem BioAssay AID1259407 (Chemical Carcinogenesis Research Information System (CCRIS), 2018).
